Experimental data: patent publication US20240400577A1, “MODULATORS OF PROTEIN KINASES” (VIBLIOME THERAPEUTICS, LLC, priority 2021, published 2024)
pIC50: −log10 of the molar value.

Key:
Test in all cases: Kinase panel enzymatic inhibition assay (Nanosyn)
Format in all cases: biochemical
[1] = biological target: T1, JAK3 (Homo sapiens, UniProt P52333); conditions: ATP at Km; 30-minute pre-incubation; read-out: kinase inhibition in terms of IC50, JAK3
T1 construct: Nanosyn (contract laboratory that ran the panel)
T1 sequence (P52333 1-1124): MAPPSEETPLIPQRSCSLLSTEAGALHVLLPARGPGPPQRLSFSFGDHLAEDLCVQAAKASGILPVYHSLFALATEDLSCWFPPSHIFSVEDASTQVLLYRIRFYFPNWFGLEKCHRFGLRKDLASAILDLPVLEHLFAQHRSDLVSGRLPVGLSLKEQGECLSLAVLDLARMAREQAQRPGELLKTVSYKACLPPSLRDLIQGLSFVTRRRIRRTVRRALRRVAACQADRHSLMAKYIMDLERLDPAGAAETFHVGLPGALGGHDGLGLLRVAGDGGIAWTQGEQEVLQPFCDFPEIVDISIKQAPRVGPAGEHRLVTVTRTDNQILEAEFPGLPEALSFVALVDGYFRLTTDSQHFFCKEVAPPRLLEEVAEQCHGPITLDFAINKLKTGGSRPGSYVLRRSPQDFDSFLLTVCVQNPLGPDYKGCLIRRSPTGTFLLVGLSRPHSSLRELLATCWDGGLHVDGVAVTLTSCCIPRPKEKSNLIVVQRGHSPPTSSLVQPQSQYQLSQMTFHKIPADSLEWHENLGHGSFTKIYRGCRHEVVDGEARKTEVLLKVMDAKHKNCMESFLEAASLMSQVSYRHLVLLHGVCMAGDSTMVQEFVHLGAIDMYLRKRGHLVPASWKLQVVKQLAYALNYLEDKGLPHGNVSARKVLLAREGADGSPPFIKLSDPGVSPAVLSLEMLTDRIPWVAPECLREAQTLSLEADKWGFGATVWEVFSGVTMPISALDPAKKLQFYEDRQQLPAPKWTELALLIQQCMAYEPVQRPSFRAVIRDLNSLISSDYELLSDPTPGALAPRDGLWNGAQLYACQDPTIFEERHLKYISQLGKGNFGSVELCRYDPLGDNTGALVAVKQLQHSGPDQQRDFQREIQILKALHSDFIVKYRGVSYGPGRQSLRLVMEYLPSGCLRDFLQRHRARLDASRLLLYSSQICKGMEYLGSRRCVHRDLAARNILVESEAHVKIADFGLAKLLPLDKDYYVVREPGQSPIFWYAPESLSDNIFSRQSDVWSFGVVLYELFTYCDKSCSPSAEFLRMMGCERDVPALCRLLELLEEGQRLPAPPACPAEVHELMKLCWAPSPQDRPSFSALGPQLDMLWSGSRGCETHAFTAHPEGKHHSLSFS
Description: (§1) The disclosed compounds were tested for activity against a panel of at least 300 kinases. Kinase panel screening was conducted by Nanosyn (Santa Clara, CA 95051) using an enzymatic inhibition assay accepted as valid by those skilled in the art (e.g., the Caliper LabChip® mobility shift assay, an ADP detection assay, or time-resolved fluorescence detection technology. Compounds were screened at a concentration of 5 μM using an ATP concentration at the Km for each of the respective kinases and a 30-minute pre-incubation time-point.
(§2) In Table 1 and 2, kinase inhibition is classified by: A=95% or greater, B=90%-94%, C=80%-89%, and D=79% and less with a compound concentration of 5 JIM. In Table 3 and 4, kinase inhibition is reported in terms of IC50 values corresponding to A=less than 500 nm, B=500 nm to less than 1 μM, C=1 μM to less than 10 μM, and D=10 μM or greater using a compound concentration of 5 μM.

[2] = biological target: T2, TYK2 (Homo sapiens, UniProt P29597); conditions: ATP at Km; 30-minute pre-incubation; read-out: kinase inhibition in terms of IC50, TYK2
T2 construct: purchased Nanosyn
T2 sequence (P29597 whole entry): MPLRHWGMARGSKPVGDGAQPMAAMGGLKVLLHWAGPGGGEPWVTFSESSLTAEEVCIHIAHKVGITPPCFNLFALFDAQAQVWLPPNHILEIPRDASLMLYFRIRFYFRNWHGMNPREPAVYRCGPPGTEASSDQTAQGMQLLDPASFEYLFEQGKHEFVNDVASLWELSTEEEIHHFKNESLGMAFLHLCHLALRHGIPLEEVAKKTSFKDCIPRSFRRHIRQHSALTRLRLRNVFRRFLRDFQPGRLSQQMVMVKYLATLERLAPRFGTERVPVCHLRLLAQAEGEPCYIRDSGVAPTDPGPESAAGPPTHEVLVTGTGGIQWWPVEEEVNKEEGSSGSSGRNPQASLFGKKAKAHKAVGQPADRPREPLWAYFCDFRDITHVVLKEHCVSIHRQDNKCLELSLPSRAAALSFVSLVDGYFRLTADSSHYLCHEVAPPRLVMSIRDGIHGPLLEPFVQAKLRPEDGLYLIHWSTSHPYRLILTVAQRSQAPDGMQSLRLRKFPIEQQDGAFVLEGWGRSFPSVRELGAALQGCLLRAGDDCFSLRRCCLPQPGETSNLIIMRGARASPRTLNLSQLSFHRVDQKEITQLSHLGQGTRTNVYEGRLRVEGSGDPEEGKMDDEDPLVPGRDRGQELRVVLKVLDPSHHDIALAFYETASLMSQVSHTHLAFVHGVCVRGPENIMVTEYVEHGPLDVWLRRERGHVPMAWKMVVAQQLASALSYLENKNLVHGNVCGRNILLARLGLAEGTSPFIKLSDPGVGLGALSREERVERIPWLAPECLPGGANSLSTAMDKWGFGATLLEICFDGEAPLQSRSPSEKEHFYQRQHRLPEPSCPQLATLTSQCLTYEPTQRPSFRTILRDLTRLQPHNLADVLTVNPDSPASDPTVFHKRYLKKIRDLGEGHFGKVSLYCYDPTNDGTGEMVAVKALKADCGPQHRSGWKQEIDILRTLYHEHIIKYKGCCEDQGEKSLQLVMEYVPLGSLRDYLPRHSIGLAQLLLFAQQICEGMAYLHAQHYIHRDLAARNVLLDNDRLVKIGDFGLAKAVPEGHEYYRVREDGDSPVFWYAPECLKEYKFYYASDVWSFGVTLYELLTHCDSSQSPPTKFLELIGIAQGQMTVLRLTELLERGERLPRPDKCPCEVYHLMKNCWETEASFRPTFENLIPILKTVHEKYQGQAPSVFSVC
Description: as §1, §2

[3] = biological target: T3, PAK4 (Homo sapiens, UniProt O96013); conditions: ATP at Km; 30-minute pre-incubation; read-out: kinase inhibition in terms of IC50, PAK4
T3 construct: Nanosyn (contract laboratory that ran the panel)
T3 sequence (O96013 whole entry): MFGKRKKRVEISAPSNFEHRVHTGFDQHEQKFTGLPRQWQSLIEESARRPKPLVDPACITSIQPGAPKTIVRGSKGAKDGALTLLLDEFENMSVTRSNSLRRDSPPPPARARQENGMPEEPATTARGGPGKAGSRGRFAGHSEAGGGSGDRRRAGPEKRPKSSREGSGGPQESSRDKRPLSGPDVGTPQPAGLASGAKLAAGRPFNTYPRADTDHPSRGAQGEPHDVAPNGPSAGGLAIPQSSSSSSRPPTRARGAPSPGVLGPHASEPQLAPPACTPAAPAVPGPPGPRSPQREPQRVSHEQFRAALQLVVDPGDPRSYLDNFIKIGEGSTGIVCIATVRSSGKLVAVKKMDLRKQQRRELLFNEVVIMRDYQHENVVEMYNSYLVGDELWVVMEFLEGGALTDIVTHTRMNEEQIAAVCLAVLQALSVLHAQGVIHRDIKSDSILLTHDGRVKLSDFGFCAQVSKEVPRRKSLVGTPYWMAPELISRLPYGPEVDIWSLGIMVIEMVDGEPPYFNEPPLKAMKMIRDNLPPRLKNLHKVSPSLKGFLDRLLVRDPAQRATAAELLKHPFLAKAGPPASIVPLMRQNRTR
Description: as §1, §2

[4] = biological target: T4, PAK2 (Homo sapiens, UniProt Q13177); conditions: ATP at Km; 30-minute pre-incubation; read-out: kinase inhibition in terms of IC50, PAK2
T4 construct: Nanosyn (contract laboratory that ran the panel)
T4 sequence (Q13177 whole entry): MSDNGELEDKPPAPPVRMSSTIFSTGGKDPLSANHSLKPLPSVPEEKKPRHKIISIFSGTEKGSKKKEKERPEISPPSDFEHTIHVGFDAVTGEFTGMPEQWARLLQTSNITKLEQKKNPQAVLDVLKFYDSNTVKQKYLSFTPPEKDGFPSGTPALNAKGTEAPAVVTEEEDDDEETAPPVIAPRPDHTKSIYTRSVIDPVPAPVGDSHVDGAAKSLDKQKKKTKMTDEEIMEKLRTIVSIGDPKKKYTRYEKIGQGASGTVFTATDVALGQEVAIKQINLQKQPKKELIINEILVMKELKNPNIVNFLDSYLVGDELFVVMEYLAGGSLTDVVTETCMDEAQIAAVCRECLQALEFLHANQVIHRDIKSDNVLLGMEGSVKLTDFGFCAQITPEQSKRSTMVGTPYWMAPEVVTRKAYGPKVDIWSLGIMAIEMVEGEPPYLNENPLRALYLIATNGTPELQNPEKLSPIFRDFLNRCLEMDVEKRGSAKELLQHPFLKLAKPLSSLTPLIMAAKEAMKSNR
Description: as §1, §2

[5] = biological target: T5, WEE1 (Homo sapiens, UniProt P30291); conditions: ATP at Km; 30-minute pre-incubation; read-out: kinase inhibition in terms of IC50, WEE1
T5 construct: purchased Nanosyn
T5 sequence (P30291 whole entry): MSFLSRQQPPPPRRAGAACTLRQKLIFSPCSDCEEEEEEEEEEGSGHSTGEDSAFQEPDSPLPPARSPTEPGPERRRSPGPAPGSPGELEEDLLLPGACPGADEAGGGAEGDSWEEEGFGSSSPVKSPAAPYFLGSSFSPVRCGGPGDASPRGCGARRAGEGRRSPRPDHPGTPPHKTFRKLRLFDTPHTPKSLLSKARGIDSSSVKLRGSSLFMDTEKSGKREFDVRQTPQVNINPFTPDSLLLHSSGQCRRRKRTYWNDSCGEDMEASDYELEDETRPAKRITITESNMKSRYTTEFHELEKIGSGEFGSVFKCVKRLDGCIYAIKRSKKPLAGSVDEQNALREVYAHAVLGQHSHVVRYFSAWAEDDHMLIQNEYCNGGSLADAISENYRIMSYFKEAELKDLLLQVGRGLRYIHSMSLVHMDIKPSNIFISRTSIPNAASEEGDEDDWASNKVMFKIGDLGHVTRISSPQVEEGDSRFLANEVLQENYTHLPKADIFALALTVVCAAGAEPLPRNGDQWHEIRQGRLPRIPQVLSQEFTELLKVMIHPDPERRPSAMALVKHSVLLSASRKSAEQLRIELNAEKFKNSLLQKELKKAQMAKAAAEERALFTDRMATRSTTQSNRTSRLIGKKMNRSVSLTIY
Description: as §1, §2

[6] = biological target: T6, PAK1 (Homo sapiens, UniProt Q13153); conditions: ATP at Km; 30-minute pre-incubation; read-out: kinase inhibition in terms of IC50, PAK1
T6 construct: Nanosyn (contract laboratory that ran the panel)
T6 sequence (Q13153 whole entry): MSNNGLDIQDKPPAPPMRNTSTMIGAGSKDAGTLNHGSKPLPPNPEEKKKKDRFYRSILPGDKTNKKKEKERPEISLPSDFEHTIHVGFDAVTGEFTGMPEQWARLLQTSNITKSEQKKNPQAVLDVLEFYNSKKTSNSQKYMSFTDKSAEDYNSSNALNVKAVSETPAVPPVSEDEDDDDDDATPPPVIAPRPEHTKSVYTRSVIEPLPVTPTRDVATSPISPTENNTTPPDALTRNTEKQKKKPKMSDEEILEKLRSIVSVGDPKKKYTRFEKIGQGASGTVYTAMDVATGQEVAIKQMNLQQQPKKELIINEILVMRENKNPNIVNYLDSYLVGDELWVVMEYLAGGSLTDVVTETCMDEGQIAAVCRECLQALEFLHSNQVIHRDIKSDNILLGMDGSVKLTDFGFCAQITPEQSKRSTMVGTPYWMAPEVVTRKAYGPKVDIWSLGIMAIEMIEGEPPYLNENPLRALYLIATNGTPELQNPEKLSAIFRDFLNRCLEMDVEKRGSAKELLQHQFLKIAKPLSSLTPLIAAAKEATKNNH
Description: as §1, §2

[7] = biological target: T7, ITK (Homo sapiens, UniProt Q08881); conditions: ATP at Km; 30-minute pre-incubation; read-out: kinase inhibition in terms of IC50, ITK
T7 construct: Nanosyn (contract laboratory that ran the panel)
T7 sequence (Q08881 1-620): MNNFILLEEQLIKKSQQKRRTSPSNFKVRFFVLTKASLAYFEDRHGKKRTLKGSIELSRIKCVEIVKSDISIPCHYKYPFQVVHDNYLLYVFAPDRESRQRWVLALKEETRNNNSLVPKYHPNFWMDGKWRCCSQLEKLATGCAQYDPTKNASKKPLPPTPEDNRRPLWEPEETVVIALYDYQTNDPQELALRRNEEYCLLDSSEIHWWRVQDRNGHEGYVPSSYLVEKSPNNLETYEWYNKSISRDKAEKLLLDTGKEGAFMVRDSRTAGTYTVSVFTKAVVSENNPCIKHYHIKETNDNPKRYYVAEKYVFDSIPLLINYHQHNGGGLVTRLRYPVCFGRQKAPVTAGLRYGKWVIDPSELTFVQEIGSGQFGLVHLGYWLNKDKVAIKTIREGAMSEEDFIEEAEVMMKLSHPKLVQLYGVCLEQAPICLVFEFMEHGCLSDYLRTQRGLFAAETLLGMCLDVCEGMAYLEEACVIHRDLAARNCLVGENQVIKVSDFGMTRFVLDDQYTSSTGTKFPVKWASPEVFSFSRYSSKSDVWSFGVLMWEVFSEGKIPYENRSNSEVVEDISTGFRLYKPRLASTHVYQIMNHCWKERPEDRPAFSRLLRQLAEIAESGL
Description: as §1, §2

`Cc1cnc2[nH]cc(Cc3ccc(NC(=O)c4cc(S(C)(=O)=O)n(-c5ccc(F)cc5)n4)nc3F)c2c1` [Ex87, N-(6-fluoro-5-((5-methyl-1H-pyrrolo[2,3-b]pyridin-3-yl)methyl)pyridin-2-yl)-1-(4-fluorophenyl)-5-(methylsulfonyl)-1H-pyrazole-3-carboxamide] gave a pIC50 [1] of at most 5.00 and a pIC50 [2] of at most 5.00.

`CNc1ncc2cc(-c3cc(NC(=O)c4cc(S(C)(=O)=O)n(-c5ccc(F)cc5)n4)ccc3Cl)c(=O)n(C)c2n1` [Ex76, N-(4-chloro-3-(8-methyl-2-(methylamino)-7-oxo-7,8-dihydropyrido[2,3-d]pyrimidin-6-yl)phenyl)-1-(4-fluorophenyl)-5-(methylsulfonyl)-1H-pyrazole-3-carboxamide] was tested, and the pIC50 [3] was 5.00 to 6.00, the pIC50 [4] was at most 5.00 and the pIC50 [5] was at most 5.00. The pIC50 [6] was at most 5.00.

`Cc1ccc(NC(=O)c2ccn(-c3ccc(F)cc3)n2)cc1Nc1nccc(-c2cccnc2)n1` [Ex75, 1-(4-fluorophenyl)-N-(4-methyl-3-((4-(pyridin-3-yl)pyrimidin-2-yl)amino)phenyl)-1H-pyrazole-3-carboxamide] was tested, and the pIC50 [7] was at most 5.00.

With `CNc1ncc2cc(-c3cc(NC(=O)c4ccn(-c5ccc(F)cc5)n4)c(F)cc3C)c(C)nc2n1` [Ex85, N-(2-fluoro-4-methyl-5-(7-methyl-2-(methylamino)pyrido[2,3-d]pyrimidin-6-yl)phenyl)-1-(4-fluorophenyl)-1H-pyrazole-3-carboxamide] the pIC50 [4] was at most 5.00 and the pIC50 [6] was at most 5.00.
